This test relates to Amaranthus palmeri. The test is described as follows: field test, post-emergence spray, visual injury rating of Palmer amaranth (scale 0 to 100). Format: in vivo. The settings on record: 3 days after treatment, 0.25% by volume non-ionic surfactant (Induce), 185 liter/ha. The source says:
The following examples summarized in table 1 serve to illustrate the invention: • Dicamba was applied as Engenia™ herbicide [BAPMA salt - (bis(3-aminopropyl)methylamine))], while 2,4-DB was applied as the commercially available Butyrac® 200 (dimethylamine salt). Herbicides were applied at an appropriate weight of each product dissolved in 1 liter of water. All herbicide treatments were applied with 0.25% by volume of a non-ionic surfactant (Induce®; an adjuvant composition consisting of alkyl aryl polyoxyalkane ethers, alkanolamides, dimethyl siloxane and free fatty acids). The spray solution was applied by a CO2 powered backpack sprayer delivering the spray solution at a rate of 185 liter/ha. The spray solution was applied to a field naturally populated with Palmer amaranth (Amaranthus palmeri) with an average height of 4-6 inches in height, however, plants both larger and smaller plants were in the field at the time of application as well. Palmer amaranth was assessed for visual injury 3 days after treatment and injury was rated on a scale from 0 to 100, whereby 0 equals no herbicidal response and 100 equals complete control of the Palmer amaranth.

These results are taken from patent EP3135113A1, “USE OF HERBICIDAL COMPOSITIONS FOR CONTROLLING UNWANTED VEGETATION” (BASF SE, priority 2015, dated 2017).

Regarding `COc1c(Cl)ccc(Cl)c1C(=O)O` [dicamba, 3,6-dichloro-2-methoxybenzoic acid], where the note is “Exp. No. 1, dicamba 420 g/ha a.i.”, the “herbicidal activity against Amaranthus palmeri (% control) found” value was found to be 60%.

For the molecule “4-(2,4-dichlorophenoxy)butanoic acid [2,4-DB]”, the “herbicidal activity against Amaranthus palmeri (% control) found” value by setting is: (Exp. No. 2, 2,4-DB 17.5 g/ha a.i.) 0%; (Exp. No. 3, 2,4-DB 35 g/ha a.i.) 5%; (Exp. No. 4, 2,4-DB 52.5 g/ha a.i.) 15%.
